Test results reported in US20250325467A1, “COMPOSITIONS FOR PREVENTING OR TREATING SKIN AGING” (ESTETRA SRL, priority 2021, published 2025).
“Also recorded” adds a separate entry of the source.

Test system: primary human dermal fibroblasts
Assay: Fibroblast monolayer scratch assay, human fibroblasts
Assay type: cell-based
Conditions: human fibroblasts from three female donors; 10^−10M to 10^−6 M; pilot experiments
Method: Human skin was transferred to the laboratory in holding media (DMEM containing 4% penicillin-streptomycin and Amphotericin B solution) within 30 minutes of collection. Once defatted, the skin was rinsed in HBSS with 4% PSA followed by DPBS without antibiotics, then cut into thin strips and floated on 0.2% Dispase II in DPBS overnight at 4° C., followed by manual separation of the epidermis from the dermis. Primary human epidermal keratinocytes and primary human dermal fibroblasts were then isolated.
Confluent wells of both primary keratinocytes and fibroblasts were subjected to a highly validated scratch wounding procedure (using a 1 mL sterile filter tip). Post-scratching, cells were rinsed with DPBS and cell-specific media containing treatments added to each well. Cells were imaged on a ptychographic live cell imaging platform (Livecyte 2™, Phasefocus) for 24-48 hours. Automated tracking of individual unlabeled cells will be combined with 3D cell measurements to quantify a range of wound-relevant cell parameters including scratch closure rate.
Dose range finding experiments were conducted with E4 (10^−10M to 10^−6M) and E2 with and without Mitomycin C (MMC, to inhibit proliferation) using vehicle as negative controls.

SMILES: C[C@]12CC[C@@H]3c4ccc(O)cc4CC[C@H]3[C@@H]1[C@@H](O)[C@@H](O)[C@@H]2O [E4, 1,3,5 (10)-estratrien-3,15alpha,16alpha,17beta-tetrol]
- fibroblast migration / in vitro wound closure: promotes in vitro wound closure to a similar extent as E2; also recorded: as effective as E2 in promoting fibroblast migration
